Here are results for 5 compounds from ChEMBL document CHEMBL1201862, “PubChem BioAssay data set” (2004).

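Where inhibition never reached the appropriate level, the endpoint shown equals the highest concentration tested. Otherwise, values were interpolated linearly from a five-concentration, 48-hour dose response in 96-well plates. Abbreviation: GI50, concentration required for 50% inhibition of growth.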 Active and inactive are the calls of the source. Cut-off read from the data, not from the text of the source: active = GI50 up to about 1.1 µM and inactive = higher. Bounds are passed on as bounds.

Among the test systems are SN12C; XF498; OVCAR-5; EKVX; SNB-78; SF-539; NCI-H522; CAKI-1; IGROV-1; KM12; SF-295; HT-29; DMS-273; DLD-1; SK-MEL-5; Hs-578T; A498; NCI/ADR-RES; PC-3.
Holding throughout (assay): NCI tumour cell line growth inhibition, 48 h

On to `Cc1nc(=O)n2c(c1C(=O)Nc1ccc(Cl)cc1)NCCC2`, for which the GI50 with SN12C, in the assay with XF498, in the assay with OVCAR-5, in the assay on EKVX, in the assay with SNB-78 and in the assay on SF-539 was > 100 µM (inactive) throughout. Besides, the GI50 with NCI-H522 was 2.97 µM (inactive); in the assay on CAKI-1, > 100 µM (inactive); in the assay on IGROV-1 it was > 100 µM (inactive); in the assay with KM12, > 100 µM (inactive); in the assay on SF-295 it was > 100 µM (inactive); in the assay with HT-29 it was > 100 µM (inactive).

For `Cc1cccc2c1Oc1cc(Cl)ccc1C2NC(=O)CN(C)C` (configuration not stated), the GI50 in the assay on SN12C is 63.1 µM (inactive); in the assay on DMS-273, 28.8 µM (inactive); in the assay with OVCAR-5, > 100 µM (inactive); with EKVX, 26.5 µM (inactive); in the assay on SNB-78, 50.7 µM (inactive); in the assay on SF-539 it was 80.5 µM (inactive). Besides, the GI50 in the assay on IGROV-1 is 35.2 µM (inactive); in the assay on HT-29 it was 36.6 µM (inactive); with DLD-1 it was 58.3 µM (inactive); in the assay on SK-MEL-5, 21.6 µM (inactive).

On to `CC(=O)Nc1ccc2c3c(cc(O)c2c1)N(C(=O)CCCCCC(=O)N1CC(CCl)c2c1cc(O)c1cc(NC(C)=O)ccc21)CC3CCl` (configuration not stated), for which the GI50 with SN12C was < 0.012 µM (active); in the assay with Hs-578T it was 0.0362 µM (active); in the assay with A498, 0.0109 µM (active); with OVCAR-5 it was 0.101 µM (active); in the assay with EKVX, 0.193 µM (active); in the assay on SF-539, 0.012 µM (active). Moreover, the GI50 in the assay with NCI-H522 is < 0.01 µM (active); in the assay on CAKI-1, 0.0123 µM (active); in the assay on IGROV-1, 0.0292 µM (active); with KM12, 0.0416 µM (active); in the assay with NCI/ADR-RES, 1.38 µM (inactive); in the assay on PC-3 it was 0.045 µM (active). Also, the GI50 is 0.0156 µM (active) in the assay on SF-295, 0.0321 µM (active) in the assay on HT-29 and 0.0109 µM (active) with SK-MEL-5.

`CC(C)(C)c1ccc(O)c(CN(Cc2cc(C(C)(C)C)ccc2O)c2ccccc2)c1`: the GI50 was 17.7 µM (inactive) in the assay with SN12C; 18.6 µM (inactive) in the assay with Hs-578T; 14.8 µM (inactive) in the assay with A498; 16.1 µM (inactive) in the assay on OVCAR-5; 16.5 µM (inactive) in the assay on EKVX; 17.6 µM (inactive) with SF-539. The GI50 with NCI-H522 was 13.3 µM (inactive); in the assay with CAKI-1 it was 31.8 µM (inactive); in the assay with IGROV-1, 21.1 µM (inactive); in the assay with KM12 it was 22.2 µM (inactive); in the assay with NCI/ADR-RES, 19.1 µM (inactive); with PC-3 it was 17.9 µM (inactive). Further, the GI50 in the assay on SF-295 was 17.5 µM (inactive); with HT-29, 18.3 µM (inactive); in the assay with SK-MEL-5, 15.1 µM (inactive).

As for `CC1=C(CCC(C)CO)O[C@H]2C[C@H]3[C@@H]4CC[C@H]5C[C@@H](O)CC[C@]5(C)[C@H]4CC(=O)[C@]3(C)[C@@H]12` (some centres not stated), the GI50 was 18.9 µM (inactive) in the assay on SN12C; 17.1 µM (inactive) with Hs-578T; 20.3 µM (inactive) with A498; 27.4 µM (inactive) in the assay with OVCAR-5; 29.9 µM (inactive) in the assay on EKVX; 19.2 µM (inactive) with SF-539. Moreover, the GI50 is 9.62 µM (inactive) in the assay on NCI-H522; 27.7 µM (inactive) in the assay on CAKI-1; 12.6 µM (inactive) in the assay on IGROV-1; 11.3 µM (inactive) with KM12; 9.48 µM (inactive) in the assay with NCI/ADR-RES; 5.08 µM (inactive) in the assay on PC-3. In addition, the GI50 was 1.27 µM (inactive) with SF-295, 13.7 µM (inactive) in the assay with HT-29 and 8.18 µM (inactive) with SK-MEL-5.
